Experimental data from a melting point compilation (Tetko et al.; mined from patent text by program, amines drawn as free bases though some values may be those of a salt).

Row | melting point [°C] | SMILES
1 | 58 | CC1(C(=O)Nc2ccc(OC(=O)Cc3cccs3)c(Cl)c2Cl)CCCCC1
2 | 88.2 to 89.2 | O=Cc1cc(Br)ccc1N1CC=CC1
3 | 196 to 198 | CC(C)C(S)C(=O)NC1(C(=O)NC(Cc2ccc(-c3ccc(F)cc3)cc2)C(=O)O)CCCC1 (stereo not given)
4 | 62 to 64 | CCOC(=O)COc1ccc(OCc2ccccc2)cc1OCc1ccccc1
5 | 277 to 278 | COc1ccc2c(c1)[C@](C)(NC(=O)c1cc3cccc4c3n1CC4)C(=O)N2c1ccc(F)cc1
6 | 151 | Cc1ccccc1-c1ccc(O)c(C(=O)O)c1
7 | 194 to 195 | O=C(O)c1[nH]c(-c2cccs2)cc1-c1ccc(F)cc1
8 | 150 to 152 | NCc1ccc(-c2cnc(N3CCN(C4CC4)CC3)nc2)cc1
9 | 106 to 108 | CC(=O)c1ccc2c(c1)C(N1CCCC1=O)=CC(C)(C)O2
10 | 214 to 215 | CC(C)(C)c1cc(CCc2ccccc2NC(=O)NCc2ccncc2)cc(C(C)(C)C)c1O
11 | 175 | O=Cc1ccc(C=CC(=O)N2CCc3c([nH]c4ccccc34)C2c2ccc3c(c2)CCO3)cc1 (stereo not given)
12 | 145 to 148 | CCOC(=O)c1cnc2ccc(CC)nc2c1Nc1ccc(OC)cc1
13 | 192 to 193 | CC1(O)CCN(Cc2ccc(C#CC(=O)Nc3ccc(-c4ccc(Cl)cc4)cc3)cc2)CC1
14 | 189 to 191 | CN(C)NC(=O)NC1c2ccccc2Oc2ccccc21
15 | 197 to 199 | CON=Cc1ccc2c(c1)ncn2-c1cccc(-n2ccnc2)c1
16 | 92 to 93 | CN(C)Cc1cccc(OCCCNc2nc(N=Cc3cccnc3)nn2C)c1
17 | 257 to 259 | O=c1[nH]c2c(c3nc(-c4ccccc4F)nn13)CCCCC2
18 | 190 to 194 | c1ccc(N2CCN(CCc3nnn[nH]3)CC2)cc1
19 | 188 to 189 | Cc1c(Br)c(=O)n(C2CCCCC2)c(=O)n1N=Cc1ccc(Cl)c(Cl)c1
20 | 202 to 203 | COc1ccc(N2C(=O)[C@@H](N3C(=O)c4ccccc4C3=O)[C@H]2/C=C/c2ccccc2)cc1 (relative stereo)

Row | melting point [°C] | SMILES
21 | 193 to 194 | O=C(Nc1ccc(N2CCN(C(=O)C(F)(F)F)CC2)cc1)C(F)(F)F
22 | 210 to 212 | CC1CC(=O)c2cc(O)cnc2C1 (stereo not given)
23 | 110 to 112 | CCOC(=O)c1cc2ccc(SCc3ccc(OC)cc3)cc2nc1Cl
24 | 203 to 205 | CC(C)(C)OC(=O)NCCC(=O)NCc1cccc2c1CN(C1CCC(=O)NC1=O)C2=O (stereo not given)
25 | 125 | N#Cc1ccccc1Oc1ccc(-c2cn(C3CCOCC3)c3ncnc(N)c23)cc1
26 | 198 to 200 | CC(C)n1cc(-c2ccc(C=O)cc2)c2c(N)ncnc21
27 | 187 to 189 | O=C(c1ccc(Cl)cc1)c1c(N2C(=O)c3ccccc3C2=O)sc(-c2ccccc2)c1CN1CCCCC1
28 | 210 | N#Cc1ccc(-c2ccc(O)cn2)cc1
29 | 182 to 184 | O=C1NC(=O)C(Cc2ccc(OCCON=Cc3cnc4ccccc4c3)cc2)S1 (stereo not given)
30 | 218 to 220 | O=c1cc(-c2ccncc2)nc2n1CCN2CCCc1c[nH]c2ccccc12
31 | 117 to 118 | O=c1ccc2ccc(OCCCN3CCCN(c4cccc(Cl)c4Cl)CC3)cc2[nH]1
32 | 106 to 108 | COc1ccc(C[C@](C)(N[C@@H](C(N)=O)c2ccccc2)C(N)=O)cc1
33 | 168 to 172 | O=C(OCCN1CCOCC1)c1ccc(-c2n[nH]c3c2Cc2ccccc2-3)cc1
34 | 149 to 150 | O=C1NC(=O)N(Cc2ccc(Cl)cc2)C1O (stereo not given)
35 | 136 to 138 | COc1cc2c3c(Br)cc(OC)c(OC)c3n(C(=O)c3ccc(C(C)(C)C)cc3)c2cc1OC
36 | 145 to 147 | COc1ccc(C2C=C3CCN(Cc4ccccc4)CC3C(CO)C2CO)cc1 (stereo not given)
37 | 71 to 72 | COc1cc(/C=C/CO)ccc1OCc1csc(-c2ccccc2)n1
38 | 171 | CNc1ccc(C=CC(=O)N2CCc3c([nH]c4ccccc34)C2c2ccc3c(c2)CCO3)cn1 (stereo not given)
39 | 84.5 to 86.5 | COC(=O)c1ccccc1-c1noc(-c2cccc(C(F)(F)F)c2)n1
40 | 194 to 195 | CCCc1c(OCc2cccc(-c3nnn[nH]3)c2)ccc(C(C)=O)c1O

Row | melting point [°C] | SMILES
41 | 254 | O=C1CCN2C(=O)c3cccc(NC(=O)Nc4ccccn4)c3C2C1 (stereo not given)
42 | 57 to 62 | O=C(N[C@@H](CO)C(=O)NCCCOC1CCCCC1)c1ccc(C(=O)c2cccnc2)cc1
43 | 219 to 221 | CC(=O)Nc1c(C(=O)c2ccccc2)[nH]c2cc(N)ccc12
44 | 94 to 95 | O=C(Nc1ccc(C(=O)N2Cc3ccccc3-c3ccccc32)cc1)c1ccc(Cl)c(Cl)c1
45 | 137 to 140 | CC(=O)OCCc1cc2c(s1)S(=O)(=O)CCc1cc(=O)n(-c3ccc(Cl)cc3)nc1-2
46 | 231 | Cn1nc(-c2cnc(N)nc2-c2ccc(F)c(F)c2)ccc1=O
47 | 145 to 146 | Cn1ncnc1COc1nc2c(cc1-c1ccoc1)nnn2-c1ccccc1F
48 | 83 to 89 | CN(C)CCCCCNC(=O)c1ccc(-c2nnc(CSCCOc3ccccc3)o2)cc1
49 | 136 to 137 | CC1(CC(O)(Cc2ccc(Cl)cc2Cl)c2cccnc2)OCCO1 (stereo not given)
50 | 187 to 192 | Cc1nc2c(O[C@@H]3c4ccccc4C[C@H]3O)cccn2c1C=O (relative stereo)
51 | 230 | Cn1cncc1C(O)(c1ccc([N+](=O)[O-])cc1)c1ccc2c(c1)c(-c1cccc(Cl)c1)cc(=O)n2C (stereo not given)
52 | 105 to 108 | Cc1nnc(N2N=C(c3ccc(Cl)cc3)c3cc4c(cc3C[C@H]2C)OCO4)s1
53 | 189 to 190 | Cc1oc2c(NC(=O)c3c(Cl)cccc3Cl)cccc2c1CC1CCCCC1
54 | 189 to 190 | c1ccc(C(N=C2NCCN2)c2ccccc2)cc1
55 | 143 to 144 | CCOc1c(C(N)=O)n(-c2ccccc2)c2ccc(OC)cc12
56 | 240 to 244 | Cn1c2c(c3ccccc31)C(=O)NCC2
57 | 138 | CC1CCN(C(=O)c2nc(-c3ccccc3)nc3ccccc23)CC1
58 | > 230 | N#Cc1c(O)ccc2oc(-c3ccc(O)cc3)cc12

More lines, now with the values behind:

Row | SMILES | melting point [°C]
59 | CCOC(=O)c1cc2c(nc1C)CCCC2 | 105 to 106
60 | CCCN1C[C@H]2CCc3cccc(O)c3[C@H]2C1 (relative stereo) | 180 to 184
61 | CC(=O)OC1(C)CCC2C3C(C#N)CC4=CC(=O)CCC4(C)C3CCC21C (stereo not given) | 211 to 216
62 | CC(C#CCCc1ccccc1)N(O)C(N)=O (stereo not given) | 113 to 114
63 | CC(=O)OCC(=O)C1C(C)CC2C3CC(Cl)C4=CC(=O)CCC4(C)C3C(O)CC21C (stereo not given) | 209
64 | CCCCCS(=O)(=O)NC(=O)CCc1cc(C(C)C)nn1Cc1ccc(C(F)(F)F)cc1Cl | 144 to 145
65 | CCCCCc1ccc(CCC2CCC(C#N)CC2)cc1 (stereo not given) | 22.4
66 | O=C(O)C(Cl)(Cl)CCCCCCCCCCCCC(Cl)(Cl)C(=O)O | 114
67 | C[C@H]1NC(C)(C)CO[C@]1(O)c1cccc(Cl)c1 | 128 to 131
68 | O=[N+]([O-])c1cnn(C2CC2)c1 | 44 to 45
69 | CN1CCC(c2c[nH]c3ccc(OCc4ccccc4)cc23)CC1 | 163 to 164
70 | CCCCCCCCOc1cc(N)c(OCOC)c(OC)c1 | 56 to 57
71 | COC(=O)C1=C[C@@H](OC(C)C)[C@H](NC(C)=O)[C@@H](CC2CO2)C1 (stereo not given in full) | 130 to 131
72 | Cc1cc(-c2ccc(S(C)=O)cc2)n(-c2ccc(S(N)(=O)=O)cc2)c1 (stereo not given) | 222 to 226
73 | Cc1nc(C)c(C(C)(O)c2ccoc2)s1 (stereo not given) | 104 to 105
74 | COC(=O)CN(CCNC(=O)OC(C)(C)C)C(=O)Cc1cc2c(C)ccnc2[nH]c1=O | 175 to 177
75 | CCCCSCC(=O)c1cc2c(cc1Cl)n(C)c(=O)n2C | 66 to 68
76 | CCCCCCCOC(=O)C(=C1NCCCS1)[N+](=O)[O-] | 59 to 60
77 | CCOc1ccc2c(c1)CC(=O)N2C1CCCCO1 (stereo not given) | 108 to 110
78 | COc1ccc(CS(=O)(=O)/C(=C/c2c(OC)cc(OC)cc2OC)C(=O)c2ccc(OC)cc2)cc1 | 60 to 62
79 | Cc1nc(N2CCCCC2)ccc1N1CCCn2c1nc1c(Cl)ccc(C(OC(F)F)C(F)(F)F)c12 (stereo not given) | 164 to 167

Row | SMILES | melting point [°C]
80 | COC(=O)CCc1ccc(N(c2ccc(-c3ccc(N(c4ccc(CCC(=O)OC)cc4)c4cccc5ccccc45)cc3)cc2)c2cccc3ccccc23)cc1 | 117 to 120
81 | O=S(=O)(Cl)c1ccc(-c2ccc(C(F)(F)F)cc2)s1 | 73 to 75
82 | CCCCCCOc1ccccc1C(=N)OCC | 68 to 70
83 | Cc1c(C)c2c(c(C)c1O)C(CO)C(C)(C)O2 (stereo not given) | 89 to 90
84 | Cc1cc2nc(Cl)c3cnccc3n2n1 | 170
85 | Cc1cnc2n1-c1cc(Cl)c(Cl)cc1N=C(c1ccc(-n3c(C)nc4cnccc43)cc1)C2 | 243 to 246
86 | COC1=CC(=O)C2CC(O[Si](C)(C)C)=CC(OC)C2C1=O (stereo not given) | 108 to 110
87 | CC(C)(C)C(=O)OCc1nc(-c2cc(C(C)(C)C)c(O)c(C(C)(C)C)c2)cs1 | 115 to 116
88 | Cc1ccc(C(=O)CBr)cc1S(N)(=O)=O | 146 to 148
89 | CCCC1=C(C#N)C(c2ccccc2Cl)c2c(n[nH]c2-c2ccc(OC)cc2)N1 (stereo not given) | 284
90 | CCON=C1CN(c2c(F)c(N)c3c(=O)c(C(=O)O)cn(C4CC4)c3c2F)CC12CN(C(=O)OC(C)(C)C)C2 | 235 to 236
91 | CN(C(=S)c1ccc2nonc2c1)C1CCOCC1 | 174 to 175
92 | CCCc1cc2c(cc1C=Cc1ccc(C(=O)OC)cc1)C(C)(C)CCC2(C)C | 120 to 121
93 | Cc1ccc(CC(=O)CCCC(=O)O)c(C)c1 | 75 to 76.5
94 | CC(Cc1ccc(C2=NNC(=O)CC2)cc1)NCC(O)c1cccc(Cl)c1 (stereo not given) | 49 to 50
95 | COCc1nc2c(N)nc3cc(CCS(C)(=O)=O)ccc3c2n1CC(C)(C)O | 210 to 212
96 | CNC(=NCCS(=O)Cc1[nH]cnc1C)NC#N (stereo not given) | 185 to 186
97 | CCOC(=O)Cc1sc(Sc2cccc(C(=O)O)n2)nc1C | 123 to 125
98 | CC(=O)Nc1nc(CCc2ccc(CCCN)s2)cs1 | 106 to 108
99 | c1csc(-c2cnc(COc3ccc(CCCn4ccnc4)cc3)s2)c1 | 82 to 84
100 | CCC(C(=O)N(C)C)n1cc(Br)cn1 (stereo not given) | 97 to 100
